Measurements published in US20170335402A1, “DOT1L INHIBITORS AND USES THEREOF” (Baylor College of Medicine, priority 2014, published 2017).
Entries after “also recorded” stand apart in the source; their conditions may differ.

Key:
[1] = system: OCI AML3 subcutaneous tumors; test: Nude rat OCI-AML3 xenograft study, tumor volume; assay type: in vivo; settings: 21 days
Description: (§1) In vivo studies were conducted. Human acute myeloid leukemia cells OCI-AML3 were implanted subcutaneously into the right flank of female athymic nude rats (Hsd:RH-Foxn1rnu, Harlan Laboratories, Inc.). EPZ-5676 was delivered by continuous IV infusion via a catheter surgically implanted in the femoral vein of each rat. Animals were separated into either an efficacy or PK/PD cohort. Both cohorts were dosed by continuous IV infusion with 35 or 70 mg/kg/day. A control group received continuous IV infusion of the vehicle, 5% hydroxypropyl-β-cyclodextrin (HPBCD) in saline. Efficacy was determined after 21 days of drug treatment followed by a 7 day drug holiday. Animals assessed for PK/PD were dosed for 14 days and euthanized following the completion of infusion. All rats were weighed and tumors calipered twice weekly until the end of study. At the completion of the study animals were euthanized by terminal cardiac puncture under isoflurane anesthesia. Euthanized rats were sampled for tumor tissue. Tumors were collected in an RNase-free environment, bisected, snap frozen in liquid nitrogen, pulverized and finally stored at (−80° C.).

[2] = system: H3K79me2; test: ELISA of H3K79me2 in OCI AML3 xenograft tumors; assay type: in vivo, nude rat
Description: as §1, with “Tumors were collected in an RNase-free environment, bisected, snap frozen in liquid nitrogen, pulverized and finally stored at (−80° C.).” left out
For isolation of histones from bone marrow, cells were lysed in 250 μL nuclear extraction buffer (10 mM Tris-HCl, 10 mM MgCl2, 25 mM KCl, 1% Triton X-100, 8.6% Sucrose, plus a Roche protease inhibitor tablet 1836145). […] Histones were quantified using the BCA protein assay (Pierce, 23225). […]

[3] = system: MEIS1 and HOXB3; test: qRT-PCR of MEIS1 and HOXB3 in OCI AML3 xenograft tumors; assay type: in vivo, nude rat; settings: 21 days
Description: as §1
For the isolation of RNA, 10 mg of tumor powder was lysed in 600 μL RLT Lysis Buffer (Qiagen) and homogenized with a Qiashredder column (Qiagen, 79656) following the manufacturer's protocol. […] MEIS1 and HOXB3 mRNA levels were assessed and normalized to GAPDH by qRT-PCR.

[4] = system: MV4-11 cells; test: Cell proliferation and viability assay (trypan blue exclusion); assay type: cell-based, human; settings: MV4-11 (MLL-rearranged); dose-dependent, FIG. 4
Description: (§2) Patient AML cell lines were plated in media and treated with the DOT1L inhibitors SYC-522, EPZ004777 or DMSO control was added at the indicated concentrations. Cells counted, washed and re-plated in fresh compound at equal densities every 3-4 days for 12 days. Cell growth and viability were followed by serial cell counts and trypan blue exclusion staining.
(§3) Exponentially growing cells were plated, in triplicate, in 24-well plates at a density of 2×10^5/mL in a final volume of 1 mL. For dose dependent assays, cells were incubated in increasing concentrations of SYC522 up to 10 μM or EPZ004777 up to 24 μM or DMSO control. For time-dependent assays, cells were incubated in 3 μM EPZ004777 or DMSO control. Every 2-3 days media and compound was replaced and cells were split back to a density of 2×10^5/mL. At each re-plating viable cells number was determined by trypan blue exclusion. Total cell number is expressed as split-adjusted viable cells per mL.

[5] = system: OCI AML2 cells; test: as above; assay type: cell-based, human; settings: OCI AML2; escalating doses, 10-14 days
Description: as §2, §3

[6] = system: OCI AML3 cells; test: as above; assay type: cell-based, human; settings: OCI AML3; escalating doses, 10-14 days
Description: as §2, §3

[7] = system: MV411 cells; test: Annexin V binding (AVB) flow cytometry apoptosis assay; assay type: cell-based, human; settings: MV4-11; dose-dependent, FIG. 4
Description: (§4) For the Annexin V apoptosis assay, 1×10^6 SYC-522-, EPZ004777- or DMSO-treated cells were washed in PBS, resuspended in Ca/HEPES buffer (10 mM HEPES, pH7.4; 140 mM NaCl; 2.5 mM CaCl2) and incubated with Annexin V-APC (BD Pharmingen, San Jose, Calif.) for 30 min then analyzed by flow cytometry.
(§5) Cells were harvested at each re-plating of the cell proliferation assay described above then split for simultaneous analysis of apoptosis, cell cycle, and differentiation. Apoptosis was determined by Annexin V binding (AVB) flow cytometry assay. The harvested cells were re-suspended in 1×AVB buffer, stained with APC-conjugated Annexin V (BD), then analyzed by flow cytometry. For cell cycle analysis, cells were pelleted, washed in PBS with 0.5% bovine serum albumin, then fixed in 70% ice-cold methanol. The fixed cells were then incubated in PBS with 100 μg/mL RNAse (Invitrogen) for 15 minutes in a 37° C. water bath. Propidium iodide (PI) in PBS at a final concentration of 25 μg/mL was then added and the cells were analyzed by flow cytometry. For differentiation, cells were pelleted, and stained with APC-conjugated CD14 then washed and re-suspended in media containing PI to exclude dead cells. All analyses were performed using an LSR II flow cytometer (BD biosciences) and the data were analyzed using FlowJo (TreeStar, V8.8.7).

[8] = system: OCI AML2 cells; test: as above; assay type: cell-based, human; settings: increasing concentrations
Description: as §4, §5

[9] = system: OCI AML3 cells; test: as above; assay type: cell-based, human; settings: increasing concentrations
Description: as §4, §5

[10] = system: OCI AML2 cells; test: Cell differentiation analysis, CD14 flow cytometry; assay type: cell-based, human; settings: dose dependent
Description: (§6) Cell differentiation analysis was performed by staining with fluorescently labeled marker for cell differentiation, CD14 followed by flow cytometry. Propidium iodide was added prior to flow cytometry analysis to exclude dead cells.
as §5

[11] = system: OCI AML3 cells; test: Cell differentiation analysis, CD14 flow cytometry; assay type: cell-based, human; settings: dose dependent
Description: as §6, §5

[12] = system: H3K79me2 in OCI AML2 cells; test: Immunoblot analysis of cellular H3K79 methylation; assay type: cell-based, human
[13] = system: H3K79me2 in OCI AML3 cells; test: Immunoblot analysis of cellular H3K79 methylation; assay type: cell-based, human
[14] = system: DNMT3A mutant cells; test: HOX gene expression in DNMT3A mutant cells (FIG. 10); assay type: cell-based, human; settings: FIG. 10, day 6 and day 10 of treatment
Description: RNA was extracted from OCI AML2 and OCI AML3 cells treated with 3 μM EPZ004777 or DMSO control using RNeasy RNA isolation kit (Qiagen) per manufacturer's protocol. RNA was quantified using Nanodrop instrument and 300-1000 ng (equal quantities for EPZ004777 treated and DMSO controls) of RNA were reverse transcribed using the SuperScript® III First-Strand Synthesis System (Invitrogen). Reverse transcription quantitative PCR was then performed in triplicate using predesigned TaqMan primer and probe sets for HOXA9 (Hs00365956_m1), MEIS1 (Hs01017441_m1), HOXB8 (Hs00256885_m1), HOXB3 (Hs01587922_m1), and GAPDH (Hs02758991_ml) (FAM-MGB; Applied Biosystems) for 30 cycles using an AbiPrism 7900HT (Applied Biosystems). Target gene numbers were normalized to the ribosomal RNA 18s (VIC-MGB; Applied Biosystems) and fold-change determined by the 2^−ΔΔCT equation.

[15] = 35 mg/kg/day continuous IV infusion
[16] = 70 mg/kg/day continuous IV infusion

Row | SMILES | tumor growth (tumor volume) [1, 15] | tumor growth (tumor volume) [1, 16] | H3K79me2 level [2, 15] | H3K79me2 level [2, 16] | expression of oncogenic genes including MEIS1 and HOXB3 in tumors [3, 15] | expression of oncogenic genes including MEIS1 and HOXB3 in tumors [3, 16] | cell proliferation [4] | cell growth / proliferation [5] | cell growth / proliferation [6] | induction of apoptosis [7] | induction of apoptosis (Annexin V binding) [8] | induction of apoptosis (Annexin V binding) [9] | terminal differentiation (CD14 staining) [10] | terminal differentiation (CD14 staining) [11] | cellular H3K79 methylation [12] | cellular H3K79 methylation [13] | oncogenic HOX gene expression [14]
1 | CC(C)N(C[C@H]1O[C@@H](n2cnc3c(N)ncnc32)[C@H](O)[C@@H]1O)[C@H]1C[C@@H](CCc2nc3cc(C(C)(C)C)ccc3[nH]2)C1 [EPZ-5676] | inhibited in a dose dependent fashion | inhibited in a dose dependent fashion reaching statistical significance | significant reduction of H3K79me2 | significant reduction of H3K79me2 | repression of oncogenic genes | repression of oncogenic genes |  |  |  |  |  |  |  |  |  |  | 
2 | CC(C)N(CCCNC(=O)Nc1ccc(C(C)(C)C)cc1)CC1OC(n2cnc3c(N)ncnc32)C(O)C1O (centres unmarked) [SYC-522] |  |  |  |  |  |  | reduction of cell proliferation | decreased proliferation; also recorded: inhibited growth in a dose-dependent fashion | decreased proliferation; also recorded: inhibited growth in a dose-dependent fashion | induction of apoptosis | induction of apoptosis | induction of apoptosis | terminal differentiation | terminal differentiation | inhibit H3K79 methylation in a time-dependent manner; also recorded: inhibited in a dose- and time-dependent fashion | inhibit H3K79 methylation in a time-dependent manner; also recorded: inhibited in a dose- and time-dependent fashion | repressed in a time-dependent fashion
